This note sets out measurements from ChEMBL document CHEMBL3832042, “DailyMed|setid=5d4f90d4-e535-4681-a863-3d774a2064e6 | ANASTROZOLE - anastrozole tablet|PD-Rx Pharmaceuticals, Inc”.

One data set relates to Homo sapiens. The experiment in a line: Evaluation of pharmacokinetic parameters for Anastrazole following multiple oral administration of Anastrazole to Caucasian and to Japanese female subjects. It counts as ADME, organism-based. Particulars: in vivo, dose 1 mg, dosed compound id 24, dosed compound name ANASTROZOLE, gender female, regimen every 24h, study dosing duration 16 days, tissue Plasma.

A short description of data set [1]: Evaluation of pharmacokinetic parameters for Anastrazole following single oral administration of Anastrazole to subjects under fatsed and fed conditions. Particulars: human, in vivo.

Each structure is given as a SMILES string. Several values for one entry are separate records, joined by “and”; a condition that tells them apart may be missing. Equal entries are not always repeated.

One may read the half-life as the time in which the quantity being followed falls by half. High values mean slow loss, low ones fast loss. In the case of `CC(C)(C#N)c1cc(Cn2cncn2)cc(C(C)(C)C#N)c1` [ANASTROZOLE], in the data set on Homo sapiens, the Cmin ss is 30.4 ng/mL and 25.7 ng/mL. Moreover, in data set [1], the half-life is 50 h.
